Where “and” joins values, the source holds several entries; their conditions need not be identical. Equal entries are not always repeated. Entries after “also recorded” stand apart in the source; their conditions may differ. Where two headings read alike, the source gives them in different places.
Experiments:
[1] = pediatric patients with juvenile rheumatoid arthritis, cited from earlier work
[2] = cited from earlier work
[3] = test system: patients with active rheumatoid arthritis; details: cited from earlier work; for patients achieving ACR20: 16 weeks, starting dose 15 mg per week; for time to achieve an ACR20 response: subgroup n=98; for ACR20 responders: subgroup ≥1 year since diagnosis with prior DMARDs or steroids (n=98)
[4] = test system: patients with rheumatoid arthritis; details: 15 mg per week, cited from earlier work
[5] = test system: patients with rheumatoid arthritis; details: after switching from intramuscular to oral; cited from earlier work
[6] = test system: rheumatoid arthritis patients; details: cited from earlier work
[7] = Pharmacokinetics of methotrexate in plasma after subcutaneous injection with autoinjector or needle/syringe; details: for AUC(0-inf) / AUC(0-τ) / Tmax / T½ / AUC: plasma; for AUC(0-t): individual animals; for AUC: AUC(0-τ)
[8] = Autoinjector, Female, 12.5 mg SC, animals S5196028/S5195684/S5195757
[9] = Autoinjector, Male, 12.5 mg SC, animals S5196273/S5196559/S5196206
[10] = Syringe, Female, 12.5 mg SC, animals S5196028/S5195684/S5195757
[11] = Syringe, Male, 12.5 mg SC, animals S5196273/S5196559/S5196206

SMILES: CN(Cc1cnc2nc(N)nc(N)c2n1)c1ccc(C(=O)N[C@@H](CCC(=O)O)C(=O)O)cc1 [Methotrexate, L-(+)-N-[p-[[(2,4-Diamino-6-pteridinyl)methyl]methylamino]-benzoyl]glutamic acid]
- average mean serum concentration ([1]; about 1 hour): about 0.59 μM
- average mean serum concentration ([1]; about 2 hours): about 0.44 μM
- average mean serum concentration ([1]; about 3 hours): about 0.29 μM
- peak serum concentrations and bioavailability, intramuscular versus subcutaneous ([2]; Brooks et al., 12.5 mg to 25 mg per week): similar
- fall of total absorption after oral administration, maintenance versus starting dosage ([2]; Hamilton et al., start 7.5 mg per week, maintenance average 17 mg per week, 21 rheumatoid arthritis patients): about 13.5%
- patients achieving ACR20 ([3]; oral): 77%
- time to achieve an ACR20 response ([3]; oral): 6 weeks
- ACR20 responders ([3]; oral): 63%
- further ACR20 non-responders with positive ACR20 response ([3]; subcutaneous dosage increased from 15 mg to 20 mg): 23%
- patients achieving ACR20 ([3]; subcutaneous): 85%
- time to achieve an ACR20 response ([3]; subcutaneous): 4 weeks
- ACR20 responders ([3]; subcutaneous): 89%
- ACR20 non-responders with positive ACR20 response after switch ([3]; switched from 15 mg oral to 15 mg subcutaneous at 16 weeks): 30%
- average DAS28 ([4]; after switch from oral to intramuscular administration): 5.2
- average DAS28 ([4]; before switch from oral to intramuscular administration): 5.6
- patients reporting nausea [5]: 48%
- patients judged to have moderate or marked improvement ([6]; 10 mg to 15 mg intramuscular once a week, 78 patients): Eighty-two
- patients who deteriorated after switching to oral methotrexate ([6]; improved after switching back to intramuscular): 10 of 48 patients
- difference in exposure / PK parameters between males and females ([7]; 12.5 mg SC, both devices): no marked difference; also recorded: no marked sex-related differences
- exposure with autoinjector compared to needle/syringe ([7]; 12.5 mg SC, male and female minipigs): very similar; also recorded: comparable
- AUC(0-inf) [7, 8]: 1859 ng·mL·h
- AUC(0-τ) [7, 8]: 1857 ng·mL·h
- Tmax [7, 8]: 15 min
- T½ [7, 8]: 237 min and 196 min
- AUC(0-t) ([7]; Autoinjector, Female, Day 8): 2498 ng·h/mL and 1857 ng·h/mL
- T½ ([7]; Autoinjector, Male, 12.5 mg SC, Mean): 115 min
- Tmax ([7]; Autoinjector, Male, 12.5 mg SC, Median): 15 min
- AUC(0-inf) [7, 9]: 1903 ng·mL·h and 1407 ng·mL·h
- Tmax [7, 9]: 15 min
- T½ [7, 9]: 120 min
- AUC(0-t) ([7]; Needle/Syringe, Female, Day 1): 2378 ng·h/mL and 1831 ng·h/mL
- Tmax ([7]; Syringe, Female, 12.5 mg SC, Median): 15 min
- AUC(0-inf) [7, 10]: 2675 ng·mL·h and 1832 ng·mL·h
- Tmax [7, 10]: 15 min
- Tmax ([7]; Syringe, Male, 12.5 mg SC, Median): 15 min
- T½ ([7]; Syringe, Male, 12.5 mg SC, animal S5196559): 115 min
- AUC(0-τ) [7, 11]: 2464 ng·mL·h and 2016 ng·mL·h
- Tmax [7, 11]: 15 min and 30 min
- time at which maximal plasma concentrations were generally observed ([7]; both devices, first collection time point): 0.25 h
- AUC(0-inf) ([7]; female, Gottingen, minipig, sc, 12.5 mg, AUC(0-inf), Autoinjector, 12.5 mg SC, Mean): 2510 ng·h/mL
- AUC(0-inf) ([7]; female, Gottingen, minipig, sc, 12.5 mg, AUC(0-inf), Autoinjector, 12.5 mg SC, animals S5196028/S5195684/S5195757): 3170 ng·h/mL
- AUC(0-inf) ([7]; female, Gottingen, minipig, sc, 12.5 mg, AUC(0-inf), Syringe, 12.5 mg SC, Mean): 2300 ng·h/mL
- AUC(0-inf) ([7]; female, Gottingen, minipig, sc, 12.5 mg, AUC(0-inf), Syringe, 12.5 mg SC, animals S5196028/S5195684/S5195757): 2380 ng·h/mL
- AUC ([7]; female, Gottingen, minipig, sc, 12.5 mg, Syringe, 12.5 mg SC, animals S5196028/S5195684/S5195757): 1830 ng·h/mL
- AUC(0-inf) ([7]; male, Gottingen, minipig, sc, 12.5 mg, AUC(0-inf), Autoinjector, 12.5 mg SC, Mean): 1490 ng·h/mL
- AUC(0-inf) ([7]; male, Gottingen, minipig, sc, 12.5 mg, AUC(0-inf), Autoinjector, 12.5 mg SC, animals S5196273/S5196559/S5196206): 1160 ng·h/mL
- AUC(0-inf) ([7]; male, Gottingen, minipig, sc, 12.5 mg, AUC(0-inf), Syringe, 12.5 mg SC, animal S5196559): 2470 ng·h/mL
- AUC ([7]; male, Gottingen, minipig, sc, 12.5 mg, Syringe, 12.5 mg SC, Mean): 1940 ng·h/mL
- AUC ([7]; male, Gottingen, minipig, sc, 12.5 mg, Syringe, 12.5 mg SC, animals S5196273/S5196559/S5196206): 1320 ng·h/mL

From patent US10555954B2, “Hazardous agent injection system” (Antares Pharma, Inc., priority 2009, dated 2020)
